Test results from the supplement of paper PMC10307832.

Experiments:
Test in all cases: relative viability (nuclei count vs DMSO), 5 days (fraction); higher = more cells survive
201T = system: 201T
In short: (§1)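 Relative viability equals treated-well nuclei counts divided by vehicle-well nuclei counts. Counts came from 4× images of lung cancer cell lines grown in 1536-well plates for 5 days after pin-tool dosing on the day after seeding. Dosing used one drug alone or a fixed anchor-drug dose plus five library-drug doses (not always all listed) in √10 steps, and values are medians of duplicate plates.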

A-427 = system: A-427
In short: as §1

BEN = system: BEN
In short: as §1

COR-L 105 = system: COR-L 105
In short: as §1

COR-L23 = system: COR-L23
In short: as §1

EKVX = system: EKVX
In short: as §1

EMC-BAC-2 = system: EMC-BAC-2
In short: as §1

HCC-15 = system: HCC-15
In short: as §1

HCC-366 = system: HCC-366
In short: as §1

HCC-78 = system: HCC-78
In short: as §1

HOP-62 = system: HOP-62
In short: as §1

LK-2 = system: LK-2
In short: as §1

NCI-H1563 = system: NCI-H1563
In short: as §1

NCI-H1734 = system: NCI-H1734
In short: as §1

NCI-H1915 = system: NCI-H1915
In short: as §1

NCI-H1993 = system: NCI-H1993
In short: as §1

NCI-H2405 = system: NCI-H2405
In short: as §1

NCI-H460 = system: NCI-H460
In short: as §1

NCI-H522 = system: NCI-H522
In short: as §1

NCI-H647 = system: NCI-H647
In short: as §1

NCI-H661 = system: NCI-H661
In short: as §1

PC-14 = system: PC-14
In short: as §1

SK-MES-1 = system: SK-MES-1
In short: as §1

Cc1csc(=NC2CCCCC2)n1/N=C/c1ccc(O)c(O)c1O [MIM1] + COc1cccc2cc(-c3nc([C@H]4CC[C@H](C(=O)O)CC4)n4ncnc(N)c34)[nH]c12 [OSI-027] (partner 0.5 µM)
relative viability (201T; first compound 0.2 µM): 0.739
relative viability (201T; first compound 0.6325 µM): 0.834
relative viability (201T; first compound 2 µM): 0.745
relative viability (201T; first compound 6.325 µM): 0.478
relative viability (201T; first compound 20 µM): 0.272
relative viability (A-427; first compound 0.2 µM): 0.432
relative viability (A-427; first compound 2 µM): 0.48
relative viability (A-427; first compound 6.325 µM): 0.456
relative viability (A-427; first compound 20 µM): 0.191
relative viability (BEN; first compound 0.2 µM): 0.309
relative viability (BEN; first compound 0.6325 µM): 0.315
relative viability (BEN; first compound 2 µM): 0.28
relative viability (BEN; first compound 6.325 µM): 0.318
relative viability (BEN; first compound 20 µM): 0.298
relative viability (COR-L 105; first compound 0.2 µM): 0.733
relative viability (COR-L 105; first compound 0.6325 µM): 0.725
relative viability (COR-L 105; first compound 2 µM): 0.596
relative viability (COR-L 105; first compound 6.325 µM): 0.582
relative viability (COR-L 105; first compound 20 µM): 0.552
relative viability (COR-L23; first compound 0.2 µM): 0.843
relative viability (COR-L23; first compound 0.6325 µM): 0.955
relative viability (COR-L23; first compound 2 µM): 0.654
relative viability (COR-L23; first compound 6.325 µM): 0.603
relative viability (COR-L23; first compound 20 µM): 0.382
relative viability (EKVX; first compound 0.2 µM): 0.803
relative viability (EKVX; first compound 0.6325 µM): 0.767
relative viability (EKVX; first compound 2 µM): 0.719
relative viability (EKVX; first compound 6.325 µM): 0.53
relative viability (EKVX; first compound 20 µM): 0.583
relative viability (EMC-BAC-2; first compound 0.2 µM): 0.422
relative viability (EMC-BAC-2; first compound 0.6325 µM): 0.36
relative viability (EMC-BAC-2; first compound 2 µM): 0.357
relative viability (EMC-BAC-2; first compound 6.325 µM): 0.344
relative viability (EMC-BAC-2; first compound 20 µM): 0.253
relative viability (HCC-15; first compound 0.2 µM): 0.747
relative viability (HCC-15; first compound 2 µM): 0.778
relative viability (HCC-15; first compound 6.325 µM): 0.469
relative viability (HCC-15; first compound 20 µM): 0.102
relative viability (HCC-366; first compound 0.2 µM): 0.852
relative viability (HCC-366; first compound 2 µM): 0.677
relative viability (HCC-366; first compound 6.325 µM): 0.186
relative viability (HCC-366; first compound 20 µM): 0.0446
relative viability (HCC-78; first compound 0.2 µM): 0.365
relative viability (HCC-78; first compound 0.6325 µM): 0.356
relative viability (HCC-78; first compound 2 µM): 0.303
relative viability (HCC-78; first compound 6.325 µM): 0.384
relative viability (HCC-78; first compound 20 µM): 0.468
relative viability (HOP-62; first compound 0.2 µM): 0.848
relative viability (HOP-62; first compound 0.6325 µM): 0.912
relative viability (HOP-62; first compound 2 µM): 0.789
relative viability (HOP-62; first compound 6.325 µM): 0.666
relative viability (HOP-62; first compound 20 µM): 0.19
relative viability (LK-2; first compound 0.2 µM): 0.247
relative viability (LK-2; first compound 0.6325 µM): 0.201
relative viability (LK-2; first compound 2 µM): 0.181
relative viability (LK-2; first compound 6.325 µM): 0.169
relative viability (LK-2; first compound 20 µM): 0.184
relative viability (NCI-H1563; first compound 0.2 µM): 0.725
relative viability (NCI-H1563; first compound 0.6325 µM): 0.821
relative viability (NCI-H1563; first compound 2 µM): 0.688
relative viability (NCI-H1563; first compound 6.325 µM): 0.72
relative viability (NCI-H1563; first compound 20 µM): 0.525
relative viability (NCI-H1734; first compound 0.2 µM): 0.666
relative viability (NCI-H1734; first compound 0.6325 µM): 0.495
relative viability (NCI-H1734; first compound 2 µM): 0.525
relative viability (NCI-H1734; first compound 6.325 µM): 0.304
relative viability (NCI-H1734; first compound 20 µM): 0.201
relative viability (NCI-H1915; first compound 0.2 µM): 0.669
relative viability (NCI-H1915; first compound 0.6325 µM): 0.495
relative viability (NCI-H1915; first compound 2 µM): 0.609
relative viability (NCI-H1915; first compound 6.325 µM): 0.49
relative viability (NCI-H1915; first compound 20 µM): 0.232
relative viability (NCI-H1993; first compound 0.2 µM): 0.515
relative viability (NCI-H1993; first compound 0.6325 µM): 0.57
relative viability (NCI-H1993; first compound 2 µM): 0.557
relative viability (NCI-H1993; first compound 6.325 µM): 0.518
relative viability (NCI-H1993; first compound 20 µM): 0.474
relative viability (NCI-H2405; first compound 0.2 µM): 0.638
relative viability (NCI-H2405; first compound 0.6325 µM): 0.666
relative viability (NCI-H2405; first compound 2 µM): 0.637
relative viability (NCI-H2405; first compound 6.325 µM): 0.553
relative viability (NCI-H2405; first compound 20 µM): 0.434
relative viability (NCI-H460; first compound 0.2 µM): 0.651
relative viability (NCI-H460; first compound 0.6325 µM): 0.66
relative viability (NCI-H460; first compound 2 µM): 0.42
relative viability (NCI-H460; first compound 6.325 µM): 0.423
relative viability (NCI-H460; first compound 20 µM): 0.0316
relative viability (NCI-H522; first compound 0.2 µM): 0.761
relative viability (NCI-H522; first compound 0.6325 µM): 0.578
relative viability (NCI-H522; first compound 2 µM): 0.717
relative viability (NCI-H522; first compound 6.325 µM): 0.696
relative viability (NCI-H522; first compound 20 µM): 0.67
relative viability (NCI-H647; first compound 0.2 µM): 0.708
relative viability (NCI-H647; first compound 0.6325 µM): 0.658
relative viability (NCI-H647; first compound 6.325 µM): 0.557
relative viability (NCI-H647; first compound 20 µM): 0.43
relative viability (NCI-H661; first compound 0.2 µM): 0.756
relative viability (NCI-H661; first compound 0.6325 µM): 0.684
relative viability (NCI-H661; first compound 2 µM): 0.636
relative viability (NCI-H661; first compound 6.325 µM): 0.534
relative viability (NCI-H661; first compound 20 µM): 0.31
relative viability (PC-14; first compound 0.2 µM): 0.785
relative viability (PC-14; first compound 0.6325 µM): 0.846
relative viability (PC-14; first compound 2 µM): 0.499
relative viability (PC-14; first compound 6.325 µM): 0.656
relative viability (PC-14; first compound 20 µM): 0.0965
relative viability (SK-MES-1; first compound 0.2 µM): 0.656
relative viability (SK-MES-1; first compound 0.6325 µM): 0.643
relative viability (SK-MES-1; first compound 2 µM): 0.591
relative viability (SK-MES-1; first compound 6.325 µM): 0.439
relative viability (SK-MES-1; first compound 20 µM): 0.15
